Read-outs that look alike come from different tables or passages of the source.
Tested on: CWR22RV1 cells
Experiment: Compound in combination with androgen receptor inhibitor HC-1119, proliferation of CWR22RV1 cells (CCK-8)
Assay type: cell-based, human
Conditions: for IC50: Homo sapiens, CWR22Rv1, 144 h, 6 days, read-out: IC50 for inhibition on the activity of CWR22RV1
Procedure: • CWR22RV1 cell line (Cell Bank of Chinese Academy of Sciences, TCHu100) • FBS (Gibco, Cat. No. 10099-141) • 0.01M PBS (Biosharp, Cat. No. 162262) • RIPM1640 (Hyclone, Cat. No. 308090.01) • Penicillin-Streptomycin (Hyclone, Cat. No. SV30010) • Cell counting kit-8 (Signalway Antibody, Cat. No. CP002) • DMSO (Sigma, Cat. No. D5879) • Centrifuge Tube, 15 ml (Excell Bio, Cat. No. CS015-0001) • Cell Culture Dish, (Excell Bio, Cat. No. CS016-0128) • 96-well cell culture cluster (Corning, Cat. No. 3599) Experimental Method:
1) CWR22RV1 cells were subcultured in cell culture media, and the cells in good growth condition were seeded in a 96-well plate, 60 μL for each well, thus the number of cells per well was 2000, then the plate was cultured overnight in a 37° C., 5% CO2 cell incubator.
2) The drug was prepared with dimethyl sulfoxide (DMSO) as a 10 mM stock solution. Prior to use, the solution was diluted 3 times with DMSO, and then diluted with a 3-fold gradient to obtain 9 concentration gradients. Then, each concentration of the compound was further diluted 200 times with the culture media (to ensure that DMSO concentration in the culture system was 0.1%), 2 repeat wells for each concentration. The diluted solution of each compound (20 μL) was added to the cell culture well (with a final concentration of 10 μM, 3.3 μM, 1.1 μM . . . ); while the solution of HC-1119 was diluted with culture media to the concentrations of 50 μM and 15 μM, respectively, and the diluted solution of HC-1119 was added to the corresponding cell culture well (with a final concentration of 10 μM, 3 μM), then shaken gently for mixing. In addition, three negative control wells containing only cells and three blank control wells containing only culture media (20 μL DMSO diluted 200 times with culture media being added to six wells) were included.
(1) After culturing for 6 days, 10 μL CCK-8 was added to each well and cultured for additional 2.5 h in a 37° C., 5% CO2 cell incubator.
(2) The absorbance (OD value) at 450 nm was measured with a multifunctional microplate reader.
(3) The data was analyzed by the Dose-response-inhibition equation in the software GraphPad Prism6, and the IC50 value was obtained.

Question: `[2H]C([2H])([2H])n1cc(-c2cc(S(C)(=O)=O)ccc2N2CCC3(CC2)CC3(F)F)c2cc[nH]c2c1=O` [Compound 184, 4-(2-(1,1-difluoro-6-aza-spiro[2.5]octan-6-yl)-5-(methylsulfonyl)phenyl)-6-trideuteromethyl-1H-pyrrolo[2,3-c]pyridin-7(6H)-one] was tested. Which IC50 (compound alone, CWR22RV1 cells) did it give?
Answer: 8.1 nM

Question: And the IC50 (in combination with 3 μM HC-1119, CWR22RV1 cells)?
Answer: 2 nM

Question: And the IC50 (in combination with 10 μM HC-1119, CWR22RV1 cells)?
Answer: 1.5 nM

Question: And the “effect of combination with HC-1119 on inhibitory action on CWR22RV1 cells (in words)” value (in combination with HC-1119, CWR22RV1 cells)?
Answer: improve the inhibitory action

Source: patent US12162878B2 (HINOVA PHARMACEUTICALS INC., priority 2018, dated 2024)
